Key:
SW1353 cells [1] = assay: Determination of TGF-β content (ELISA) of SW1353 cell cultures treated with postbiotic extract and/or nutritional component; type: cell-based, Human; details: 24 hours
Experimental: (§1) • 2. Human primary central chondrosarcoma cell line SW1353 was purchased from the Bioresource Collection and Research Center of the Food Industry Research and Development Institute (BCRC of FIRDI, Taiwan). SW1353 cells were grown in a 10-cm Petri dish containing Dulbecco's Modified Eagle's Medium (DMEM) (Thermo Fisher Scientific) supplemented with 10% fetal bovine serum (FBS). The SW1353 cells were cultivated in an incubator with culture conditions set at 37° C. and 5% CO2. Medium change was performed every two to three days. Cell passage was performed when the cultured cells reached 80-90% of confluence. • 3.
The TGF-β content was determined using an enzyme-linked immunosorbent assay (ELISA) kit (Cat. No. 559119, BD Biosciences) in accordance with the manufacturer's instructions.
(§2) SW1353 cells were divided into 25 groups, including one control group, twelve comparative groups (i.e., comparative groups L-1 to L-6 and B-1 to B-6), and twelve experimental groups (i.e., experimental groups L-1 to L-6 and B-1 to B-6). Each group of the SW1353 cells was incubated in a respective well of a 96-well culture plate containing 200 μL of DMEM at 1×10^4 cells/well, followed by cultivation in an incubator (37° C., 5% CO2) for 24 hours. […] The cell culture of the control group received no treatment.
After cultivation in an incubator (37° C., 5% CO2) for 24 hours, the respective resultant cell culture was subjected to the determination of TGF-β content according to the method described in section 1 of “General Procedures”.
(§3) SW1353 cells were divided into 28 groups, including fourteen comparative groups (i.e., comparative groups 1L to 7L and […]) and fourteen experimental groups (i.e., experimental groups 1L to 7L and 1B to 7B). Each group of the SW1353 cells was incubated in a respective well of a 96-well culture plate containing 200 μL of DMEM at 1×10^4 cells/well, followed by cultivation in an incubator (37° C., 5% CO2) for 24 hours.

SW1353 cells [2] = assay: Proliferation of SW1353 cells (MTT staining, OD570 converted to cell number); type: cell-based, Human; details: 24 hours
Experimental: as §1
as §2, with “3” for “25”, “group” for “group, twelve comparative groups (i.e., comparative groups L-1 to L-6”, “two” for “B-1 to B-6), and twelve”, “L” for “L-1 to L-6”, “B).” for “B-1 to B-6).”
After cultivation in an incubator (37° C., 5% CO2) for 24 hours, the respective resultant cell culture was stained with 3-(4,5-Dimethylthiazol-2-yl)-2,5-diphenyltetrazolium bromide (MTT), followed by subjecting the stained cells to determination of absorbance at a wavelength of 570 nm by a spectrophotometer. The OD570 values obtained were subsequently converted to cell numbers based on a correlation curve previously prepared by plotting different known cell numbers of the SW1353 cells versus their OD570 values.
as §3
After cultivation in an incubator (37° C., 5% CO2) for 24 hours, the cell number of each group was determined according to the method described in section C of this example. The fold increase of viable cells was calculated using the following Equation (II): C=D/E (II) where C=fold increase of viable cells • D=cell number of respective experimental group or comparative group • E=cell number of corresponding comparative group 1L, 2L, 3L, 4L, 5L, 6L, or 7L

[3] = nutritional component only 50 mg/L
[4] = nutritional component only 100 mg/L
[5] = nutritional component only 50 mg/L, this group is the reference of the ratio
[6] = nutritional component only 100 mg/L, relative to the same component at 50 mg/L

Compound | TGF-β content (SW1353 cells [1]; [3]) | TGF-β content (SW1353 cells [1]; [4]) | Fold increase of viable cells (SW1353 cells [2]; [5]) | Fold increase of viable cells (SW1353 cells [2]; [6])
N[C@H]1C(O)O[C@H](CO)[C@@H](O)[C@@H]1O (stereo partly shown) [Glucosamine] | 17.1 pg/mL | 20.8 pg/mL | 1.0 | 1.1
O=C1O[C@H]([C@@H](O)CO)C(O)=C1O [Vitamin C] | 18.2 pg/mL | 21.1 pg/mL | 1.0 | 1.0
Chondroitin | 38.3 pg/mL | 44.2 pg/mL | 1.0 | 1.1
Sodium hyaluronate | 97.3 pg/mL | 102.2 pg/mL | 1.0 | 1.1
